{"source": "patent US8853418B2", "about": "“Cyclopentylpyrazoles as N-type calcium channel blockers” (Janssen Pharmaceutica NV, priority 2012, dated 2014)", "biological_target": "N-type calcium channel (α1B (Cav2.2), β3 and α2δ subunits) (Homo sapiens, UniProt Q00975)", "sequence (Q00975 whole entry)": "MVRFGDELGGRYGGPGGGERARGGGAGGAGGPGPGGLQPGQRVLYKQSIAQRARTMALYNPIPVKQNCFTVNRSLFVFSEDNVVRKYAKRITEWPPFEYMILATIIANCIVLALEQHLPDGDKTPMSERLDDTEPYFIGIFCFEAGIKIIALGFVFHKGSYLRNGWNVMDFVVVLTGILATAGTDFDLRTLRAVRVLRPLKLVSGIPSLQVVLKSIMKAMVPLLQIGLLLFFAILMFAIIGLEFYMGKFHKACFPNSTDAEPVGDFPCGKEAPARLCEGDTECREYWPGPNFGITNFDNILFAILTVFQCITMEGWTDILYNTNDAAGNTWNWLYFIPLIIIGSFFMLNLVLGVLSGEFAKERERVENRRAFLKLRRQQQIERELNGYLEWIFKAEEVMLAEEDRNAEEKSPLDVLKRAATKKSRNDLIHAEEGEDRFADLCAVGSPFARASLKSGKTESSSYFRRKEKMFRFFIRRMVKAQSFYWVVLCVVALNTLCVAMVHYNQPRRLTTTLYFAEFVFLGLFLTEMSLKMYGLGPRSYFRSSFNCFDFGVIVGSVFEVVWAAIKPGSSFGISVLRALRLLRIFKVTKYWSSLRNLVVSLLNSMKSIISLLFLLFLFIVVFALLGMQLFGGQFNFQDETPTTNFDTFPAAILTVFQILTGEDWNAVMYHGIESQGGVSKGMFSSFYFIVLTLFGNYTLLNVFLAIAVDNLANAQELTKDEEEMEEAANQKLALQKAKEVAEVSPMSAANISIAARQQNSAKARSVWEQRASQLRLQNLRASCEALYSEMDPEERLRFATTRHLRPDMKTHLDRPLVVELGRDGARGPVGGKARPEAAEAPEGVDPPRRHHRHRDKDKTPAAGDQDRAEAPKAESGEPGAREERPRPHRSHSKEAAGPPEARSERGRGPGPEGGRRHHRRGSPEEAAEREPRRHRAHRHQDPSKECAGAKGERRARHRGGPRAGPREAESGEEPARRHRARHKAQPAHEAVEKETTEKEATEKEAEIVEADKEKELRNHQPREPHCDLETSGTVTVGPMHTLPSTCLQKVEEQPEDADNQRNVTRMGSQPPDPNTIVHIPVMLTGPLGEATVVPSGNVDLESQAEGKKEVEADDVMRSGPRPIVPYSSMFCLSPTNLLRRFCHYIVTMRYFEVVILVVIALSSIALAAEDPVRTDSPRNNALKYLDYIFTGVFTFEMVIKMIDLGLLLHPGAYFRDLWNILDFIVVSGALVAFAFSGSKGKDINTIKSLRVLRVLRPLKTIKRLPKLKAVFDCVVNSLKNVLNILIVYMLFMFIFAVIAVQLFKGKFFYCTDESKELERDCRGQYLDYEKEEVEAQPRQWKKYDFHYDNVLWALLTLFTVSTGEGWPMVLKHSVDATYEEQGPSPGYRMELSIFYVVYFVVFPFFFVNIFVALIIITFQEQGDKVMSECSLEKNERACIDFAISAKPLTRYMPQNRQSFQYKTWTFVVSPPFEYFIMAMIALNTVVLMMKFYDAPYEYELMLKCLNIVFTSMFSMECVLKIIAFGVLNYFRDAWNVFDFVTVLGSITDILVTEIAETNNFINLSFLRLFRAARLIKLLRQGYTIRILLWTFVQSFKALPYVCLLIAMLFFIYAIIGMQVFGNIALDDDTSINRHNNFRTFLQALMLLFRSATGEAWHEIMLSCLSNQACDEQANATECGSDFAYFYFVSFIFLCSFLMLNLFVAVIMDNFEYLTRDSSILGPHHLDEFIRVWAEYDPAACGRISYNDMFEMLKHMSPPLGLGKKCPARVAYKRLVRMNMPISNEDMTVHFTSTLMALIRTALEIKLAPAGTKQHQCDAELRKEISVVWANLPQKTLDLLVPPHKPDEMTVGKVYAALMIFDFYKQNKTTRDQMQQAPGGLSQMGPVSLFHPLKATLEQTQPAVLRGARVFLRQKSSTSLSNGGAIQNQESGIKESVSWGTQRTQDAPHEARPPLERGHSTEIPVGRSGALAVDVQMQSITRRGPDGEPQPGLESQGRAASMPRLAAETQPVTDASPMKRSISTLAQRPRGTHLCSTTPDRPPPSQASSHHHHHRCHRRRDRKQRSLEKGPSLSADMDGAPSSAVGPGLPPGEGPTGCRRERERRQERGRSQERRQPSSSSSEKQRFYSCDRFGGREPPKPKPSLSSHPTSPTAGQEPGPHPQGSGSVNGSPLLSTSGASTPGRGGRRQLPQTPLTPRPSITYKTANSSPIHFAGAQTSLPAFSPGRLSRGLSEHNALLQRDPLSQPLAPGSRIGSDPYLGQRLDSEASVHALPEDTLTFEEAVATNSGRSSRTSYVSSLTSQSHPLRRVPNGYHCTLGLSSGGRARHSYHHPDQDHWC", "sequence (P54284 whole entry partner)": "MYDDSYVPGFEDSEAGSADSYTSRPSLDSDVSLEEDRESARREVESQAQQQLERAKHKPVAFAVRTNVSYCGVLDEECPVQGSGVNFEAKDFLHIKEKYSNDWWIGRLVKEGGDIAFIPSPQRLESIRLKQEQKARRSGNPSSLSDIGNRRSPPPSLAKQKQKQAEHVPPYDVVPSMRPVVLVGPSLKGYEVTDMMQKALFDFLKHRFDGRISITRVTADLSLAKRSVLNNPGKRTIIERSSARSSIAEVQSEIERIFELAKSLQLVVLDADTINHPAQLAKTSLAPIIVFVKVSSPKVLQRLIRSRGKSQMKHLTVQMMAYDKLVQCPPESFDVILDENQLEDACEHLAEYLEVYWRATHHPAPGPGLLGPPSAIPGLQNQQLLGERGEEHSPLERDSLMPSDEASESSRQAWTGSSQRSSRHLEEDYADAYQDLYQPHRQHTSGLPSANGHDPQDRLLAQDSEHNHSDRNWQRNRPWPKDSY", "sequence (P54289 25-946 partner limits assumed)": "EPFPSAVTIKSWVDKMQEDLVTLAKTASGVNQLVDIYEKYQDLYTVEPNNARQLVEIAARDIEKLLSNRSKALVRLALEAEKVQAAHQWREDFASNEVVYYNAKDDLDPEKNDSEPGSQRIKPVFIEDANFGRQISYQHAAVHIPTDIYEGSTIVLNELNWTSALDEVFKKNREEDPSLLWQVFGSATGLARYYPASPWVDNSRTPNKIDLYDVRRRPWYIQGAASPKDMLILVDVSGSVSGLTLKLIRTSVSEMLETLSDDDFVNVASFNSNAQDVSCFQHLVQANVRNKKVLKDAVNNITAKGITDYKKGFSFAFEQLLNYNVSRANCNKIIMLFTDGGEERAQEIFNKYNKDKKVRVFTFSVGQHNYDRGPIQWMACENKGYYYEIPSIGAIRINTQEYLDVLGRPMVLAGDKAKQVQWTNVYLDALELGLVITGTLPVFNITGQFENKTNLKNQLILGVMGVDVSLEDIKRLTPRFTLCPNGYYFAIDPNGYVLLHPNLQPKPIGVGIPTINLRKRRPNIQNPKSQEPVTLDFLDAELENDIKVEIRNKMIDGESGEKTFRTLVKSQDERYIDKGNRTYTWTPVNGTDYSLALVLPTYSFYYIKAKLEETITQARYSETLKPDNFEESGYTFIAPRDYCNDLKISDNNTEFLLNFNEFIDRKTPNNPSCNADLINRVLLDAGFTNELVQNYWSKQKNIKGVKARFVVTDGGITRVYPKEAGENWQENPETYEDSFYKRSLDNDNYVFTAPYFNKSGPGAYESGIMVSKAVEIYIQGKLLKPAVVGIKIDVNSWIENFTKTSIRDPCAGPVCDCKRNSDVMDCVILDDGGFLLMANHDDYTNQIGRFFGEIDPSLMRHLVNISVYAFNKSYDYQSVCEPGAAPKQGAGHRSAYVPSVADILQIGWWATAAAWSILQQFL", "sequence (P54289 947-1103 partner limits assumed)": "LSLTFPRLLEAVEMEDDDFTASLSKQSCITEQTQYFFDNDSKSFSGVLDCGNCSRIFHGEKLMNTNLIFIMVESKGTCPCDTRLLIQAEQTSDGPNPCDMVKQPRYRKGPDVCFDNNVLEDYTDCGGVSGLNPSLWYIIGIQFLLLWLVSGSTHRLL", "assay": "Functional Assay: Antagonism of N-Type Calcium Channel (FDSS calcium mobilization, KCl depolarization)", "format": "cell-based", "experimental": "A stable cell line (HEK parent) co-expressing the α1B (Cav2.2), β3 and α2δ subunits of the N-type calcium channel subunits was used. These cells were routinely grown as monolayers in low glucose-containing Dulbecco's Modified Eagle Medium supplemented with 10% FBS, 2 mM L-glutamine, 100 I.U./mL penicillin, 100 μg/mL streptomycin, 400 μg/mL G418 and 200 μg/mL Zeocin (split ratio=1:5). Cells were maintained in 5% CO2 at 37° C. Compounds of Formula (I) were prepared as 10 mM stocks in DMSO from neat compound, if available. Otherwise, the 5 or 10 mM DMSO stock solutions provided in-house were used.\nCalcium mobilization responses to KCl depolarization were evaluated by measuring the intensity of calcium-mediated fluorescent signal in the presence of BD Calcium Assay Dye (BD Biosciences, Franklin Lakes, N.J., U.S.A.), utilizing a Functional Drug Screening System (FDSS) by Hamamatsu Corporation (Bridgewater, N.J. U.S.A.).\nTwenty-four hr prior to assay, cells were seeded in clear-base poly-D-lysine-coated 384-well plates (BD Biosciences) at a density of 5,000 cells per well in culture medium and grown overnight in 5% CO2 at 37° C. On the day of assay, growth media were removed, and cells were loaded with BD calcium assay dye (BD Biosciences) for 35 min at 37° C. under 5% CO2 and then for 25 min at room temp. Utilizing the FDSS, cells were exposed to representative compounds of Formula (I) at varying concentrations, and intracellular calcium was measured for 5 min prior to the addition of 50 mM KCl for an additional 3 min of measurement.\nCalculations and Formulas\nIC50 values for representative compounds of Formula (I) were determined from six-point concentration-response experiments and represent the concentration of said compound required to inhibit 50% of the maximal response. Maximal fluorescence intensity (FI) achieved upon addition of 50 mM KCl was exported from the FDSS software and further analyzed using GraphPad Prism 3.02 (Graph Pad Software Inc., San Diego, Calif., U.S.A.). Data were normalized to the maximum average counts from quadruplicate wells for each condition in the presence of 50 mM KCl and to the minimum average counts in the presence of buffer. Theoretical curves were generated using nonlinear regression curve-fitting analysis of either sigmoidal concentration-response or sigmoidal concentration-response (variable slope), and the IC50 values with the best-fit curve determined by GraphPad Prism were reported.", "key": {"[1]": {"conditions": "HEK cell line, 50 mM KCl depolarization, six-point concentration-response, read-out: FDSS IC50"}}, "note": "Where two headings read alike, the source gives them in different places."}
{"compound": "COc1ccccc1-n1nc2c(c1-c1ccc(Cl)cc1)CC(C1CNc3ccccc3C1)C2", "note": "(stereo not drawn) [Compound 65, 3-[3-(4-chlorophenyl)-2-(2-methoxyphenyl)-2,4,5,6-tetrahydrocyclopenta[c]pyrazol-5-yl]-1,2,3,4-tetrahydroquinoline]", "values": [{"measurement": "inhibition at 0.33 µM", "setting": "0.33 μM", "value": 59, "unit": "%"}, {"measurement": "IC50", "setting": "[1]", "value": 280, "unit": "nM"}]}
{"compound": "CCOC(=O)c1cncc(C2Cc3nn(-c4ccccc4OC)c(-c4ccc(Cl)cc4)c3C2)c1", "note": "(stereo not drawn) [Compound 66, Ethyl 5-[3-(4-chlorophenyl)-2-(2-methoxyphenyl)-2,4,5,6-tetrahydrocyclopenta[c]pyrazol-5-yl]pyridine-3-carboxylate]", "values": [{"measurement": "inhibition at 0.33 µM", "setting": "0.33 μM", "value": 79, "unit": "%"}, {"measurement": "IC50", "setting": "[1]", "value": 66, "unit": "nM"}]}
{"compound": "CCC(CC)CO[C@@H]1Cc2nn(-c3ccccc3OC)c(-c3ccc(Cl)cc3)c2C1", "note": "[Compound 72, (5S)-3-(4-chlorophenyl)-5-(2-ethylbutoxy)-2-(2-methoxyphenyl)-2,4,5,6-tetrahydrocyclopenta[c]pyrazole]", "values": [{"measurement": "inhibition at 0.33 µM", "setting": "0.33 μM", "value": 78, "unit": "%"}, {"measurement": "IC50", "setting": "[1]", "value": 61, "unit": "nM"}]}
{"compound": "COc1ccccc1-n1nc2c(c1-c1ccc(Cl)cc1)CC(c1ccc(C)nc1)C2", "note": "(stereo not drawn) [Compound 73, 3-(4-chlorophenyl)-2-(2-methoxyphenyl)-5-(6-methylpyridin-3-yl)-2,4,5,6-tetrahydrocyclopenta[c]pyrazole]", "values": [{"measurement": "inhibition at 0.33 µM", "setting": "0.33 μM", "value": 81, "unit": "%"}, {"measurement": "IC50", "setting": "[1]", "value": 86, "unit": "nM"}]}
{"compound": "CCOc1ccc(C2Cc3nn(-c4ccccc4OC)c(-c4ccc(Cl)cc4)c3C2)cn1", "note": "(stereo not drawn) [Compound 74, 3-(4-chlorophenyl)-5-(6-ethoxypyridin-3-yl)-2-(2-methoxyphenyl)-2,4,5,6-tetrahydrocyclopenta[c]pyrazole]", "values": [{"measurement": "inhibition at 0.33 µM", "setting": "0.33 μM", "value": 61, "unit": "%"}, {"measurement": "IC50", "setting": "[1]", "value": 150, "unit": "nM"}]}
{"compound": "COc1ccccc1-n1nc2c(c1-c1ccc(Cl)cc1)CC(c1ccc(C(C)C)nc1Cl)C2", "note": "(stereo not drawn) [Compound 75, 5-[2-Chloro-6-(1-methylethyl)pyridin-3-yl]-3-(4-chlorophenyl)-2-(2-methoxyphenyl)-2,4,5,6-tetrahydrocyclopenta[c]pyrazole]", "values": [{"measurement": "inhibition at 0.33 µM", "setting": "0.33 μM", "value": 53, "unit": "%"}, {"measurement": "IC50", "setting": "[1]", "value": 230, "unit": "nM"}]}
{"compound": "COc1ccccc1-n1nc2c(c1-c1ccc(Cl)cc1)CC(c1ccc(C3CC3)nc1)C2", "note": "(stereo not drawn) [Compound 77, 3-(4-chlorophenyl)-5-(6-cyclopropylpyridin-3-yl)-2-(2-methoxyphenyl)-2,4,5,6-tetrahydrocyclopenta[c]pyrazole]", "values": [{"measurement": "inhibition at 0.33 µM", "setting": "0.33 μM", "value": 81, "unit": "%"}, {"measurement": "IC50", "setting": "[1]", "value": 62, "unit": "nM"}]}
{"compound": "COc1ccccc1-n1nc2c(c1-c1ccc(Cl)cc1)C[C@H](OCC1CCCCC1)C2", "note": "[Compound 82, (5S)-3-(4-chlorophenyl)-5-(cyclohexylmethoxy)-2-(2-methoxyphenyl)-2,4,5,6-tetrahydrocyclopenta[c]pyrazole]", "values": [{"measurement": "inhibition at 0.33 µM", "value": 76, "unit": "%"}, {"measurement": "IC50", "setting": "FDSS IC50", "value": 130, "unit": "nM"}]}
{"compound": "COc1ccccc1-n1nc2c(c1-c1ccc(Cl)cc1)C[C@H](OCC1CCCC1)C2", "note": "[Compound 83, (5S)-3-(4-chlorophenyl)-5-(cyclopentylmethoxy)-2-(2-methoxyphenyl)-2,4,5,6-tetrahydrocyclopenta[c]pyrazole]", "values": [{"measurement": "inhibition at 0.33 µM", "value": 92, "unit": "%"}, {"measurement": "IC50", "setting": "[1]", "value": 49, "unit": "nM"}]}
{"compound": "COc1ccccc1-n1nc2c(c1-c1ccc(Cl)cc1)C[C@H](OCC1CCC1)C2", "note": "[Compound 84, (5S)-3-(4-chlorophenyl)-5-(cyclobutylmethoxy)-2-(2-methoxyphenyl)-2,4,5,6-tetrahydrocyclopenta[c]pyrazole]", "values": [{"measurement": "inhibition at 0.33 µM", "value": 80, "unit": "%"}]}
{"compound": "COc1ccccc1-n1nc2c(c1-c1ccc(Cl)cc1)C[C@H](OC(=O)C1CCOCC1)C2", "note": "[Compound 86, (5S)-3-(4-chlorophenyl)-2-(2-methoxyphenyl)-2,4,5,6-tetrahydrocyclopenta[c]pyrazol-5-yl tetrahydro-2H-pyran-4-carboxylate]", "values": [{"measurement": "inhibition at 0.33 µM", "setting": "0.33 μM", "value": 82, "unit": "%"}, {"measurement": "IC50", "setting": "[1]", "value": 82, "unit": "nM"}]}
{"compound": "COc1ccccc1-n1nc2c(c1-c1ccc(Cl)cc1)C[C@H](OCC1CCOCC1)C2", "note": "[Compound 87, (5S)-3-(4-chlorophenyl)-2-(2-methoxyphenyl)-5-(tetrahydro-2H-pyran-4-ylmethoxy)-2,4,5,6-tetrahydrocyclopenta[c]pyrazole]", "values": [{"measurement": "inhibition at 0.33 µM", "setting": "0.33 μM", "value": 82, "unit": "%"}, {"measurement": "IC50", "setting": "[1]", "value": 92, "unit": "nM"}]}
{"compound": "COc1ccccc1-n1nc2c(c1-c1ccc(Cl)cc1)CC(C(C)C)C2", "note": "(stereo not drawn) [Compound 92, 3-(4-chlorophenyl)-2-(2-methoxyphenyl)-5-(1-methylethyl)-2,4,5,6-tetrahydrocyclopenta[c]pyrazole]", "values": [{"measurement": "inhibition at 0.33 µM", "value": 43, "unit": "%"}]}
{"compound": "CCOc1ccc(-c2c3c(nn2-c2ccccc2OC)CC2(C3)OCC(C)(C)CO2)cn1", "note": "[Compound 94, 3-(6-ethoxypyridin-3-yl)-2-(2-methoxyphenyl)-5′,5′-dimethyl-2,6-dihydro-4H-spiro[cyclopenta[c]pyrazole-5,2′-[1,3]dioxane]]", "values": [{"measurement": "inhibition at 0.33 µM", "setting": "0.33 μM", "value": 81, "unit": "%"}, {"measurement": "IC50", "setting": "[1]", "value": 60, "unit": "nM"}]}
{"compound": "COc1ccccc1-n1nc2c(c1-c1ccc(C)nc1)CC1(C2)OCC(C)(C)CO1", "note": "[Compound 95, 2-(2-methoxyphenyl)-5′,5′-dimethyl-3-(6-methylpyridin-3-yl)-2,6-dihydro-4H-spiro[cyclopenta[c]pyrazole-5,2′-[1,3]dioxane]]", "values": [{"measurement": "inhibition at 0.33 µM", "setting": "0.33 μM", "value": 67, "unit": "%"}, {"measurement": "IC50", "setting": "[1]", "value": 110, "unit": "nM"}]}
{"compound": "COc1ccccc1-n1nc2c(c1-c1ccc(Cl)cc1)CC(C1CCCCC1)C2", "note": "(stereo not drawn) [Compound 104, 3-(4-chlorophenyl)-5-cyclohexyl-2-(2-methoxyphenyl)-2,4,5,6-tetrahydrocyclopenta[c]pyrazole]", "values": [{"measurement": "inhibition at 0.33 µM", "setting": "0.33 μM", "value": 61, "unit": "%"}, {"measurement": "IC50", "setting": "[1]", "value": 140, "unit": "nM"}]}
{"compound": "COc1ccccc1-n1nc2c(c1-c1ccc(C#N)cc1)CC(CC1CCCCC1)C2", "note": "(stereo not drawn) [Compound 106, 4-[5-(cyclohexylmethyl)-2-(2-methoxyphenyl)-2,4,5,6-tetrahydrocyclopenta[c]pyrazol-3-yl]benzonitrile]", "values": [{"measurement": "inhibition at 0.33 µM", "setting": "0.33 μM", "value": 64, "unit": "%"}, {"measurement": "IC50", "setting": "[1]", "value": 270, "unit": "nM"}]}
{"compound": "COc1ccccc1-n1nc2c(c1-c1ccc(Cl)cc1)CC(N1CC(C)OC(C)C1)C2", "note": "(stereo not drawn) [Compound 116, 3-(4-chlorophenyl)-5-(2,6-dimethylmorpholin-4-yl)-2-(2-methoxyphenyl)-2,4,5,6-tetrahydrocyclopenta[c]pyrazole]", "values": [{"measurement": "inhibition at 0.33 µM", "setting": "0.33 μM", "value": 77, "unit": "%"}, {"measurement": "IC50", "setting": "[1]", "value": 48, "unit": "nM"}]}
{"compound": "COc1ccccc1-n1nc2c(c1-c1ccc(Cl)cc1)CC(N1CCC(C)CC1)C2", "note": "(stereo not drawn) [Compound 117, 3-(4-chlorophenyl)-2-(2-methoxyphenyl)-5-(4-methylpiperidin-1-yl)-2,4,5,6-tetrahydrocyclopenta[c]pyrazole]", "values": [{"measurement": "inhibition at 0.33 µM", "setting": "0.33 μM", "value": 75, "unit": "%"}, {"measurement": "IC50", "setting": "[1]", "value": 44, "unit": "nM"}]}
{"compound": "CCC1(CC)CCN(C2Cc3nn(-c4ccccc4OC)c(-c4ccc(Cl)cc4)c3C2)C1", "note": "(stereo not drawn) [Compound 118, 3-(4-chlorophenyl)-5-(3,3-diethylpyrrolidin-1-yl)-2-(2-methoxyphenyl)-2,4,5,6-tetrahydrocyclopenta[c]pyrazole]", "values": [{"measurement": "inhibition at 0.33 µM", "setting": "0.33 μM", "value": 76, "unit": "%"}, {"measurement": "IC50", "setting": "[1]", "value": 46, "unit": "nM"}]}
{"compound": "COc1ccccc1-n1nc2c(c1-c1ccc(Cl)cc1)CC(N1CCC(C)(C)C1)C2", "note": "(stereo not drawn) [Compound 119, 3-(4-chlorophenyl)-5-(3,3-dimethylpyrrolidin-1-yl)-2-(2-methoxyphenyl)-2,4,5,6-tetrahydrocyclopenta[c]pyrazole]", "values": [{"measurement": "inhibition at 0.33 µM", "setting": "0.33 μM", "value": 76, "unit": "%"}, {"measurement": "IC50", "setting": "[1]", "value": 84, "unit": "nM"}]}
{"compound": "COc1ccccc1-n1nc2c(c1-c1ccc(Cl)s1)CC1(C2)OCC(C)(C)CO1", "note": "[Compound 120, 3-(5-chlorothiophen-2-yl)-2-(2-methoxyphenyl)-5′,5′-dimethyl-2,6-dihydro-4H-spiro[cyclopenta[c]pyrazole-5,2′-[1,3]dioxane]]", "values": [{"measurement": "inhibition at 0.33 µM", "setting": "0.33 μM", "value": 78, "unit": "%"}, {"measurement": "IC50", "setting": "[1]", "value": 91, "unit": "nM"}]}
